Assays:
Assay in all cases: KINOMEscan competition binding
FGFR1 (human) = FGFR1 (human) (UniProt P11362)
CDK14 (human) = CDK14 (human) (UniProt O94921)
[1] = molecular target: TYK2 JH2 pseudokinase (human) (UniProt P29597)
HIPK2 (human) = HIPK2 (human) (UniProt Q9H2X6)
STK4 (human) = STK4 (human) (UniProt Q13043)
TXK (human) = TXK (human) (UniProt P42681)
MST1R (human) = MST1R (human) (UniProt Q04912)
PIK3CG (human) = PIK3CG (human) (UniProt P48736)
MLTK (human) = MLTK (human) (UniProt Q9NYL2)
IRAK1 (human) = IRAK1 (human) (UniProt P51617)
[2] = molecular target: ABL1 (human), P00519 [F317L]
NLK (human) = NLK (human) (UniProt Q9UBE8)
MAP2K3 (human) = MAP2K3 (human) (UniProt P46734)
CDC2L2 (human) = CDC2L2 (human) (UniProt Q9UQ88)
ROS1 (human) = ROS1 (human) (UniProt P08922)
[3] = molecular target: PIK3CA (human), P42336 [E542K]
IRAK3 (human) = IRAK3 (human) (UniProt Q9Y616)
ROCK2 (human) = ROCK2 (human) (UniProt O75116)
LTK (human) = LTK (human) (UniProt P29376)
EPHB6 (human) = EPHB6 (human) (UniProt O15197)
CAMK1G (human) = CAMK1G (human) (UniProt Q96NX5)
FES (human) = FES (human) (UniProt P07332)
EPHB2 (human) = EPHB2 (human) (UniProt P29323)
HCK (human) = HCK (human) (UniProt P08631)
PTK2B (human) = PTK2B (human) (UniProt Q14289)
AXL (human) = AXL (human) (UniProt P30530)
ULK3 (human) = ULK3 (human) (UniProt Q6PHR2)
[4] = molecular target: MET (human), P08581 [M1250T]
TAOK1 (human) = TAOK1 (human) (UniProt Q7L7X3)
CDKL3 (human) = CDKL3 (human) (UniProt Q8IVW4)
AURKB (human) = AURKB (human) (UniProt Q96GD4)
EIF2AK2 (human) = EIF2AK2 (human) (UniProt P19525)
[5] = molecular target: ABL1 (human), P00519 [E255K]
CaMK1 (human) = CaMK1 (human) (UniProt Q14012)
MAPK15 (human) = MAPK15 (human) (UniProt Q8TD08)
MAPK13 (human) = MAPK13 (human) (UniProt O15264)
SLK (human) = SLK (human) (UniProt Q9H2G2)
EPHA1 (human) = EPHA1 (human) (UniProt P21709)
AURKC (human) = AURKC (human) (UniProt Q9UQB9)
STK10 (human) = STK10 (human) (UniProt O94804)
MAP3K3 (human) = MAP3K3 (human) (UniProt Q99759)

Sequence of MET (human), P08581 [M1250T] (P08581 whole entry M1250T, looked up): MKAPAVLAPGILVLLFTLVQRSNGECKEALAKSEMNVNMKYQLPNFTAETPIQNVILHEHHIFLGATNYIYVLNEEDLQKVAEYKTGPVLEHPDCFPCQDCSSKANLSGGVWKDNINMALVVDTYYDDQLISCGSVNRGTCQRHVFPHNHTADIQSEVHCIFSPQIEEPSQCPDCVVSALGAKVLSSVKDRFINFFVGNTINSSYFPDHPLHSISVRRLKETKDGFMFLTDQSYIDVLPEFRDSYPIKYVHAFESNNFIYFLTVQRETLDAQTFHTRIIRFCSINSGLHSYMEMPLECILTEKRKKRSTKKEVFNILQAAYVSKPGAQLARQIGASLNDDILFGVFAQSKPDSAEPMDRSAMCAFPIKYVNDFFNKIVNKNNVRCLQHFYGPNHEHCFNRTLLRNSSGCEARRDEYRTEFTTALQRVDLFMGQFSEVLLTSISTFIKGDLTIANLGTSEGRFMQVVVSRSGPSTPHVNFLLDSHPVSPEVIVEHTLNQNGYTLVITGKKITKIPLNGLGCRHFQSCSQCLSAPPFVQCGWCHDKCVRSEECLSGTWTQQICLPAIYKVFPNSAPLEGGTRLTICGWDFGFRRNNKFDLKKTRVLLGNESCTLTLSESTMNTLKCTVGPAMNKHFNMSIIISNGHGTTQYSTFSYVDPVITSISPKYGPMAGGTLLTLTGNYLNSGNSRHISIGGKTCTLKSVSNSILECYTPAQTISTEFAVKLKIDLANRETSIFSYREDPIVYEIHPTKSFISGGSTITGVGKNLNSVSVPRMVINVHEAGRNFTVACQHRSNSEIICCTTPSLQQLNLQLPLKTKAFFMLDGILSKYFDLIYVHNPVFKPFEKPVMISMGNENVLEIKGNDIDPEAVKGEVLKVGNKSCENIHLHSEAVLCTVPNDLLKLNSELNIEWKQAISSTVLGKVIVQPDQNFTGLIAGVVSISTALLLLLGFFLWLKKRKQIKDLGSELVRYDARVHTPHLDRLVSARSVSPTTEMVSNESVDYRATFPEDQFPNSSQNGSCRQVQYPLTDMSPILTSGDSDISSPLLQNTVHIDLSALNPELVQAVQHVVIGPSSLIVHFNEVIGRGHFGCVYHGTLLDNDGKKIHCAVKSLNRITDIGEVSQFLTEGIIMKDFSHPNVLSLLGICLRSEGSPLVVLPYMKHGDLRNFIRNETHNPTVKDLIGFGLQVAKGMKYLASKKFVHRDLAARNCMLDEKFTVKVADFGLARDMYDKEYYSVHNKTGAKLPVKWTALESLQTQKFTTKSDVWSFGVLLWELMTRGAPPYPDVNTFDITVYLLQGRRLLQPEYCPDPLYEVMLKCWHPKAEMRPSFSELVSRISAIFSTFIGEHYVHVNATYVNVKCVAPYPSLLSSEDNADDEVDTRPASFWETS
Sequence of EPHB6 (human) (O15197 whole entry, looked up): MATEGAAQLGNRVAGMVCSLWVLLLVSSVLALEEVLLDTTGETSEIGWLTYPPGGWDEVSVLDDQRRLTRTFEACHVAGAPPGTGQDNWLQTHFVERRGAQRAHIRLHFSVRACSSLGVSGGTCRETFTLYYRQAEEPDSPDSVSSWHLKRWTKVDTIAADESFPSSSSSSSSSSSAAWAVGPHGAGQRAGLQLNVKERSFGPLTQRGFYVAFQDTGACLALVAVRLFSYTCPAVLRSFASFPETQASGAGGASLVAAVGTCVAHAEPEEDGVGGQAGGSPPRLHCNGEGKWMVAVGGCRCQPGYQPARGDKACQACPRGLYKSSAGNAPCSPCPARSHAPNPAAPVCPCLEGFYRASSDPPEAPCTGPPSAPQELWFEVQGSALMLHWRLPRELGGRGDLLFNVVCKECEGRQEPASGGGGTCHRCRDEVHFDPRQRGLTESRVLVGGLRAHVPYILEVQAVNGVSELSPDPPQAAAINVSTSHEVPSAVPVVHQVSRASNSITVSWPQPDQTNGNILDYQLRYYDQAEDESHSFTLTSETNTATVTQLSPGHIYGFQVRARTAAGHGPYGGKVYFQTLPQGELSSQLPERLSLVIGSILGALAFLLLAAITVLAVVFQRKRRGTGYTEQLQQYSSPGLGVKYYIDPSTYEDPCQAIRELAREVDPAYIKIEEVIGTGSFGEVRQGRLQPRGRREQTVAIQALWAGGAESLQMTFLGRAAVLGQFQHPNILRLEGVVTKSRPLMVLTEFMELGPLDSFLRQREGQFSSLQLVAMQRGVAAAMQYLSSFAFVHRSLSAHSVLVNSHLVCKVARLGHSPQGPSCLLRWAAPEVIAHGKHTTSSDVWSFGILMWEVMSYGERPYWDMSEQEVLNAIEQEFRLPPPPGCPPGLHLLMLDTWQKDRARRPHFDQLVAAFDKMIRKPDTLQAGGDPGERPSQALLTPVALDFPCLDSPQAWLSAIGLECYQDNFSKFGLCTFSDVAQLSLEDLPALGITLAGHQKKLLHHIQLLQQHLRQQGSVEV
Sequence of HIPK2 (human) (Q9H2X6 whole entry, looked up): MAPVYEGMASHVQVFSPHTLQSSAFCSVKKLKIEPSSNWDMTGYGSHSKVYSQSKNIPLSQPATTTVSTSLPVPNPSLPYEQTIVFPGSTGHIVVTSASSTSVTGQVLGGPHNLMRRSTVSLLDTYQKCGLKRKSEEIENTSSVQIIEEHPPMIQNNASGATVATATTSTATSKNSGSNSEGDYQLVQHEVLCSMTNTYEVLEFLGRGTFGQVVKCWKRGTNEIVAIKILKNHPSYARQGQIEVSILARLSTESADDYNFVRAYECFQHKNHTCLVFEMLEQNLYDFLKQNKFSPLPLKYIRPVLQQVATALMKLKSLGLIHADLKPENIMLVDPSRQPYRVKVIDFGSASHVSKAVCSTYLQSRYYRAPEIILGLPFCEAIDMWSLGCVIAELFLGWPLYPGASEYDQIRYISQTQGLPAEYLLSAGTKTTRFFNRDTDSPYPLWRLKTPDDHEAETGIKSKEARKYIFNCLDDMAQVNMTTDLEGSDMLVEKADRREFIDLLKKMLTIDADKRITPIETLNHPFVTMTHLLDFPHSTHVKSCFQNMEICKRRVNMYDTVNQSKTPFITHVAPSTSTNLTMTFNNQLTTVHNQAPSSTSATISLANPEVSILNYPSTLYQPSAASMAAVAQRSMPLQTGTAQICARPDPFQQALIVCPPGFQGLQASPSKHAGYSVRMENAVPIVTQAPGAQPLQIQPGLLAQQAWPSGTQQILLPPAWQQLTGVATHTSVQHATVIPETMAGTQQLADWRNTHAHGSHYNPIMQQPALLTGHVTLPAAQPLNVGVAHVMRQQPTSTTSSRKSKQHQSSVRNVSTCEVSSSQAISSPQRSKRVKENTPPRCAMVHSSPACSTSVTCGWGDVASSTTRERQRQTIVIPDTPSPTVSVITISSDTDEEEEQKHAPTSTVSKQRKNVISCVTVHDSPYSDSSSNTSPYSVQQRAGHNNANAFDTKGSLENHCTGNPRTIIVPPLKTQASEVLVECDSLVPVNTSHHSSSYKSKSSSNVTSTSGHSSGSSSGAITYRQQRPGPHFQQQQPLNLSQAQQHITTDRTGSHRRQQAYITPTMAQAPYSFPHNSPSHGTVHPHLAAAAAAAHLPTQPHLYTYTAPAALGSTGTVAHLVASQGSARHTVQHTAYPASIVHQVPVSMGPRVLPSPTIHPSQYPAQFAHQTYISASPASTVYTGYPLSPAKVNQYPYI
Sequence of PTK2B (human) (Q14289 whole entry, looked up): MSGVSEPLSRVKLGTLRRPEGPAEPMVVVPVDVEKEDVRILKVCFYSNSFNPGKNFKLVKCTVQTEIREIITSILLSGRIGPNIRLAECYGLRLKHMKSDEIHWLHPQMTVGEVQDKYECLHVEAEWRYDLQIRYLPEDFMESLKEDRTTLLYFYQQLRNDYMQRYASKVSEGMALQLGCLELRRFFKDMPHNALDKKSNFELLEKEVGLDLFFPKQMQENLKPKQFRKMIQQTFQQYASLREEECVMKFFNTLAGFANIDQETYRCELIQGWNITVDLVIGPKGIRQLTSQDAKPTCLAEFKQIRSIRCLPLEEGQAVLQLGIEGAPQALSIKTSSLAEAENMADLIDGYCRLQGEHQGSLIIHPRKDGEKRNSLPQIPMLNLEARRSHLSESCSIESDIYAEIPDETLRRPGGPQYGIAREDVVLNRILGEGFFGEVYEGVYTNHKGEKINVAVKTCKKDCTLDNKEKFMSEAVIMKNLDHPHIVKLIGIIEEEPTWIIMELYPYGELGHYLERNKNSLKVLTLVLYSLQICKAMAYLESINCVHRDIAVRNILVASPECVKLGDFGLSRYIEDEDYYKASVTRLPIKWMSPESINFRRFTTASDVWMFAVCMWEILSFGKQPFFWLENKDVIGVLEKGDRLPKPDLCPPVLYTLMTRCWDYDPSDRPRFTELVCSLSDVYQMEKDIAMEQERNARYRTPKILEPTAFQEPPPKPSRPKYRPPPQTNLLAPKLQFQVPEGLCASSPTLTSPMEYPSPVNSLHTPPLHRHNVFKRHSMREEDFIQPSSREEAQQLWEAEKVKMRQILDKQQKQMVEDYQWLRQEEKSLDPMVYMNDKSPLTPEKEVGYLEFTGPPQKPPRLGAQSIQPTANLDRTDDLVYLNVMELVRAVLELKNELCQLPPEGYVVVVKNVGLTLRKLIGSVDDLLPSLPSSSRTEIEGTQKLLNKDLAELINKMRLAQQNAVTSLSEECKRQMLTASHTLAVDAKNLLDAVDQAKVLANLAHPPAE
Sequence of CAMK1G (human) (Q96NX5 whole entry, looked up): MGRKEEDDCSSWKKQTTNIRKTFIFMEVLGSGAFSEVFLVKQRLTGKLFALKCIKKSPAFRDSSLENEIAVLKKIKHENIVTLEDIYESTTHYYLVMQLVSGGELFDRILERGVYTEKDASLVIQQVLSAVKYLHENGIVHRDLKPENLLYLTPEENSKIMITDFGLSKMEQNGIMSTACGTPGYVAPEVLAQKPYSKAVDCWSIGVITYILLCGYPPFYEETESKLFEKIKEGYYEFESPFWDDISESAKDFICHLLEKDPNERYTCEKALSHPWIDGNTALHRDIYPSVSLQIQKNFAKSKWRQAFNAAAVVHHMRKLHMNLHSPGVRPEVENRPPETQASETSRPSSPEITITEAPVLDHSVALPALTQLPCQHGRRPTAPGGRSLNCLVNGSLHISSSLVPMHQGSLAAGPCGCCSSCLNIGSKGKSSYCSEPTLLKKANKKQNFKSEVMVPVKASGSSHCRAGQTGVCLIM

- Kd (FGFR1 (human)): 840 nM
- Kd (CDK14 (human)): 110 nM
- Kd [1]: 16000 nM
- Kd (HIPK2 (human)): 1000 nM
- Kd (STK4 (human)): 30000 nM
- Kd (TXK (human)): 190 nM
- Kd (MST1R (human)): 6400 nM
- Kd (PIK3CG (human)): 30000 nM
- Kd (MLTK (human)): 8.2 nM
- Kd (IRAK1 (human)): 9600 nM
- Kd [2]: 3.8 nM
- Kd (NLK (human)): 270 nM
- Kd (MAP2K3 (human)): 31000 nM
- Kd (CDC2L2 (human)): 170 nM
- Kd (ROS1 (human)): 2500 nM
- Kd [3]: 27000 nM
- Kd (IRAK3 (human)): 1400 nM
- Kd (ROCK2 (human)): 37000 nM
- Kd (LTK (human)): 1200 nM
- Kd (EPHB6 (human)): 92 nM
- Kd (CAMK1G (human)): 30000 nM
- Kd (FES (human)): 110 nM
- Kd (EPHB2 (human)): 40 nM
- Kd (HCK (human)): 13 nM
- Kd (PTK2B (human)): 6600 nM
- Kd (AXL (human)): 2700 nM
- Kd (ULK3 (human)): 13000 nM
- Kd [4]: 2100 nM
- Kd (TAOK1 (human)): 2100 nM
- Kd (CDKL3 (human)): 2000 nM
- Kd (AURKB (human)): 25000 nM
- Kd (EIF2AK2 (human)): 34000 nM
- Kd [5]: 6.5 nM
- Kd (CaMK1 (human)): 8800 nM
- Kd (MAPK13 (human)): 390 nM
- Kd (SLK (human)): 20 nM
- Kd (EPHA1 (human)): 140 nM
- Kd (AURKC (human)): 10000 nM
- Kd (STK10 (human)): 1.7 nM
- Kd (MAP3K3 (human)): 11000 nM
SMILES: COc1cc2ncnc(Oc3cccc(NC(=O)Nc4cc(C(C)(C)C(F)(F)F)on4)c3)c2cc1OC
- Kd (MAPK15 (human)): 94 nM
